Patent publication US20140155445A1, “Compounds and Methods for Treating Cancer and Diseases of the Central Nervous System” (Osta Biotechnologies Inc., priority 2007, published 2014)

Tests used:
[1] = tested on: HCT-116 colorectal carcinoma; assay: Colorectal carcinoma model HCT-116 in SCID mice; format: in vivo, human
Source text: Control groups received the vehicle alone.

[2] = tested on: APPswe/PS1dE9 mice; assay: Behavioral studies (maze, fear conditioning) in APPswe/PS1dE9 mice; format: in vivo, mouse
Procedure: The experiments were performed at Pennington Biomedical Research Centre (PBRC) of Lousiana State University, Baton Rouge, Lousiana and were approved by the Institutional Animal Care and Use Committee (IACUC) of PBRC.
The APPswe/PS1dE9 mice were generated against a C57/BL6J background by breeding either +/+ males or females with −/− females or males, respectively.
Memantine (10 mg/kg) and both doses of QC-199 (15 mg/kg & 30 mg/kg) were prepared in batches and frozen for later use. Each compound was weighed and dissolved in injectable sterile saline solution. Memantine was prepared at a concentration of 1 mg/ml, the 15 mg/kg dose of QC-199 at a volume of 15 mg/10 ml, and the 30 mg/kg dose of QC-199 at a volume of 30 mg/10 ml. The compounds were prepared in this volume so that the mice could easily be injected based on their body weight, e.g., a 35 gram mouse was injected with 0.35 ml dosing solution.
Memantine and QC-199 dosing solutions were administered to mice via i.p. injections. The mice were weighed 3 times/week and were injected with a volume that matched their body weight. The mice were injected daily and the injection located was alternated each day to avoid potential complications from injection in the same location on a daily basis.
After reaching their respective treatment duration, the wild type and APP/PS1 double transgenic mice were run through the STM and fear conditioning. The STM consisted of one day of straight run training (running down an alley from the start box to the goal box). This phase was implemented to establish the contingency that moving forward would provide escape into the dark and dry goal box. The mice were required to reach a criterion of completing the straight run in 15 sec or less on 7 out of 9 trials over a maximum of 15 trials. […] The following day each mouse was administered 15 trials in the STM with approximately 7-10 min between each trial where they were placed into a holding cage with a towel. The latency to reach the goal box and the number of errors committed were the dependent measures of learning. However, in our experience, errors committed is much more indicative of learning and is reported for this project. Pictures of the straight run (A) and maze (B) are shown in FIG. 42, along with a schematic (C) of the maze indicating the correct path. The data from the maze was collapsed into blocks of 5 trials for data summary and presentation.
Med Associates Inc.'s MED-VFC-NIR-M NIR Video Fear Conditioning System for Mouse, Pavlovian fear conditioning was conducted after the STM. On Day 1 the mice were placed in Context 1 and given 5 tone+shock pairings. On day 2 the mice were placed back into Context 1 and their freezing response to being placed back into the original context where fear conditioning occurred was measured. Freezing is operationally defined as the cessation of all movement except that required for respiration. Freezing was measured over 10 minutes, and data were summarized in 1-min intervals. On day 3 the mice were placed into a novel context (Context 2) for 10 min. […] For the final 5 min, the tone paired with shock during fear conditioning was presented. Again, the data was summarized in 1-min intervals.
Maze data was analyzed by two-way ANOVAs to determine treatment group effects for both errors and run time after the data was collapsed into three 5 trial blocks. Planned comparisons of transgenic mice treated with saline with each of the drug treatments, memantine or QC-199 at 15 mg/kg/day and 30 mg/kg/day were conducted to evaluate group differences in the maze at each trial block and both tone and contextual fear conditioning tests. The critical a level was set at 0.05 for all statistical tests. The values in FIGS. 46A-46C represent the means±S.E.M. The data was analyzed using the SPSS statistical program version 11.0. […]

Structure (SMILES) | mouse mortality ([1]; 60 mg/kg, HCT-116 model (FIG. 25)) | reduction of tumor volume at the time of sacrifice compared to control ([1]; QC-56 60 mg/kg/ip, 5-FU 60 mg/kg/ip reduced to 40 mg/kg) | effect on maze errors and contextual fear conditioning (summary) ([2]; Memantine, QC-199 15 mg/kg and 30 mg/kg, dtg mice) | maze errors vs saline-treated APP/PS1 mice ([2]; QC-199 30 mg/kg/day i.p., trend at Trial Block 3 (p=0.052)) | contextual fear conditioning (freezing) vs saline-treated APP/PS1 mice ([2]; QC-199 15 and 30 mg/kg/day, Memantine 10 mg/kg, Time Blocks 1-4)
Brc1ccc(CCC2(Cn3ccnc3)OCCO2)cc1.Cl [QC-56, 1-((2-(2-(4-Bromophenyl)ethyl)-1,3-dioxolan-2-yl)methyl)-1H-imidazole hydrochloride] | but not QC-56, induced mortality | approximately 23% |  |  | 
Brc1ccc(CCCCn2ccnc2)cc1.Cl [QC-199, 1-[4-(4-bromophenyl)butyl]-1H-imidazole hydrochloride] |  |  | positive effect | did not exhibit improved performance at any of the Trial Blocks | none reached significance
